PubChem BioAssay AID1963866 (Molecular Pharmacology Branch, DTP, NCI, 2024)
pIC50: −log10 of the molar value.

Test system: PDC KRAS tumor spheroids with HUVEC/MSC, viability
Assay: Anticancer human tumor 349418-098-R-PDC patient-derived lung adenocarcinoma cell line growth inhibition [KRAS2]
Details: for pIC50: curve of first compound; for viability, T/C: stronger effect = lower value
Source text: Multicellular complex tumor spheroid response to RAS pathway inhibitors in combination with a targeted agents in patient-derived cell lines with oncogenic KRAS variants from multiple cancer types
A high-throughput screen of multi-cell type tumor spheroids was designed to identify active combinations of targeted small molecules and KRAS pathway inhibitors. Complex spheroids include a stromal component modeled by human endothelial cells (HUVEC) and fibroblasts modeled by human mesenchymal stem cells (MSCs). The concentration ranges selected for each drug and investigational agent were based upon clinically achievable concentrations if the clinical Cmax of the agent was known.
Compounds. The drugs and investigational agents: BI-3406 (NSC825286), BAY-293 (NSC824723), batoprotafib (TNO155; NSC825523), sotorasib (AMG 510; NSC818433), MRTX1257 (NSC819558), elimusertib (BAY 1895344; NSC800525), molibresib (GSK525762; NSC774829), temuterkib (LY3214996; NSC803410), venetoclax (NSC766270), alisertib (NSC759677), olaparib (NSC753686), talazoparib (NSC767125), erdafitinib (NSC781556), ipatasertib (NSC767898), cabozantinib (NSC761068), nintedanib (NSC756659), abemaciclib (NSC768073), docetaxel (NSC628503), trametinib (NSC758246), and sapanisertib (NSC764658) were obtained from the National Cancer Institute (NCI) Developmental Therapeutics Program Chemical Repository. The FDA-approved anticancer drug set is available from the Developmental Therapeutics Program. […] The stock solutions were prepared in dimethyl sulfoxide (DMSO, Sigma-Aldrich, St. Louis, MO, cat. D2650) at 800-fold the tested concentration and stored at -70 degrees C prior to their use. All drugs and investigational agents were tested over a range starting from a high concentration at or near the clinical Cmax and decreasing in half-log increments. If the clinical Cmax for an agent had not been determined, the highest concentration tested was 10 microM.
Cell Culture. All cells were maintained in an incubator at 37 degrees C and 5% CO2 with 95% humidity. The PDC lines were cultured according to standard operating procedures established by the NCI PDMR (https://pdmr.cancer.gov/sops/default.htm). Briefly, all PDCs were thawed and cultured in Matrigel-coated flasks prepared with a working solution of 1X Ham's F-12 nutrient mix, without supplementation (Invitrogen, Waltham, MA, cat. 11765054), 100 U/mL penicillin-streptomycin (Invitrogen, cat. 15140122), and 2.5% Matrigel (Corning Inc., Corning, NY, cat. 354248) for the first three passages. All PDCs were cultured in complete DMEM/F-12 media containing advanced DMEM/F-12 (Invitrogen, cat. 12634028), 4.9% defined fetal bovine serum, heat inactivated (HyClone Laboratories Inc., Logan, UT, cat. SH30070.03HI), 389 ng/mL hydrocortisone (Sigma-Aldrich, cat. H4001), 9.7 ng/mL human EGF recombinant protein (Invitrogen, cat. PHG0313), 23.4 microg/mL adenine (Sigma-Aldrich, cat. A2786), 97.3 U/mL penicillin-streptomycin (Invitrogen, cat. 15140122), 1.9 mM L-glutamine (Invitrogen, cat. 25030081), and 9.7 microM Y-27632 dihydrochloride (Tocris Bioscience, Bristol, United Kingdom, cat. 1254). The PDCs were cultured in complete DMEM/F12 media without 9.7 microM Y-27632 dihydrochloride for at least two passages prior to the screen. The established cell line HOP-62 was cultured in RPMI 1640 medium, HEPES (Invitrogen, cat. 22400105) with 10% defined fetal bovine serum (HyClone Laboratories Inc., cat. SH30070.03) and 2 mM L-glutamine (Invitrogen, cat. 25030081). The pooled donor HUVEC were cultured in endothelial cell growth medium 2 (PromoCell, Heidelberg, Germany, cat. C-22011) and the hMSC were cultured in mesenchymal stem cell growth medium 2 (PromoCell, cat. C-28009). For all experiments, HUVEC and hMSC were used at passages </=5, while the malignant cell lines were used at passages </=15. […]

[1] = second compound 0.1 µM, first compound 0.0316 µM
[2] = second compound 0.1 µM, first compound 0.1 µM
[3] = second compound 0.1 µM, first compound 0.316 µM
[4] = second compound 0.1 µM, first compound 1 µM
[5] = second compound 0.1 µM, first compound 3.16 µM
[6] = second compound 0.316 µM, first compound 0.0316 µM
[7] = second compound 0.316 µM, first compound 0.1 µM
[8] = second compound 0.316 µM, first compound 0.316 µM
[9] = second compound 0.316 µM, first compound 1 µM
[10] = second compound 0.316 µM, first compound 3.16 µM
[11] = second compound 1 µM, first compound 0.0316 µM
[12] = second compound 1 µM, first compound 0.1 µM
[13] = second compound 1 µM, first compound 0.316 µM
[14] = second compound 1 µM, first compound 1 µM
[15] = second compound 1 µM, first compound 3.16 µM
[16] = second compound 3.16 µM, first compound 0.0316 µM
[17] = second compound 3.16 µM, first compound 0.1 µM
[18] = second compound 3.16 µM, first compound 0.316 µM
[19] = second compound 3.16 µM, first compound 1 µM
[20] = second compound 3.16 µM, first compound 3.16 µM
[21] = second compound 10 µM, first compound 0.0316 µM
[22] = second compound 10 µM, first compound 0.1 µM
[23] = second compound 10 µM, first compound 0.316 µM
[24] = second compound 10 µM, first compound 1 µM
[25] = second compound 10 µM, first compound 3.16 µM
[26] = second compound 0.1 µM, first compound 10 µM
[27] = second compound 0.316 µM, first compound 10 µM
[28] = second compound 1 µM, first compound 10 µM
[29] = second compound 3.16 µM, first compound 10 µM
[30] = second compound 10 µM, first compound 10 µM
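Note: spheroids exposed to compounds for seven days before readout.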

Compound: CC1COCCN1c1cc(-c2ccnn2C)c2ccnc(-c3ccn[nH]3)c2n1 (stereo not given) + C=CC(=O)N1CCN(c2nc(=O)n(-c3c(C)ccnc3C(C)C)c3nc(-c4c(O)cccc4F)c(F)cc23)C(C)C1
- pIC50 (second compound 0.1 µM): 7.56
- pIC50 (second compound 0.316 µM): 7.58
- pIC50 (second compound 1 µM): 7.57
- pIC50 (second compound 3.16 µM): 7.81
- pIC50 (second compound 10 µM): > 8.00
- viability, T/C (second compound 0.1 µM, first compound 0.01 µM): 76.3%
- viability, T/C [1]: 46.3%
- viability, T/C [2]: 9.21%
- viability, T/C [3]: 6.2%
- viability, T/C [4]: 4.48%
- viability, T/C [5]: 4.43%
- viability, T/C (second compound 0.316 µM, first compound 0.01 µM): 117%
- viability, T/C [6]: 37.7%
- viability, T/C [7]: 8.7%
- viability, T/C [8]: 4.96%
- viability, T/C [9]: 4.36%
- viability, T/C [10]: 4.34%
- viability, T/C (second compound 1 µM, first compound 0.01 µM): 101%
- viability, T/C [11]: 42%
- viability, T/C [12]: 7.61%
- viability, T/C [13]: 5.66%
- viability, T/C [14]: 4.24%
- viability, T/C [15]: 4.16%
- viability, T/C (second compound 3.16 µM, first compound 0.01 µM): 69%
- viability, T/C [16]: 18.1%
- viability, T/C [17]: 6.37%
- viability, T/C [18]: 4.8%
- viability, T/C [19]: 4.05%
- viability, T/C [20]: 4.49%
- viability, T/C (second compound 10 µM, first compound 0.01 µM): 21.2%
- viability, T/C [21]: 5.73%
- viability, T/C [22]: 4.31%
- viability, T/C [23]: 4.56%
- viability, T/C [24]: 4.61%
- viability, T/C [25]: 4.96%

Compound: CC1OCC2(CCN(c3cnc(Sc4ccnc(N)c4Cl)c(N)n3)CC2)C1N (stereo not given) + C=CC(=O)N1CCN(c2nc(=O)n(-c3c(C)ccnc3C(C)C)c3nc(-c4c(O)cccc4F)c(F)cc23)C(C)C1
- pIC50 (second compound 0.1 µM): < 5.00
- pIC50 (second compound 0.316 µM): < 5.00
- pIC50 (second compound 1 µM): < 5.00
- pIC50 (second compound 3.16 µM): < 5.00
- pIC50 (second compound 10 µM): > 7.50
- viability, T/C [1]: 109%
- viability, T/C [2]: 79.5%
- viability, T/C [3]: 110%
- viability, T/C [4]: 90%
- viability, T/C [5]: 76%
- viability, T/C [26]: 74.5%
- viability, T/C [6]: 87.3%
- viability, T/C [7]: 94.9%
- viability, T/C [8]: 90.2%
- viability, T/C [9]: 100%
- viability, T/C [10]: 96.4%
- viability, T/C [27]: 78.5%
- viability, T/C [11]: 82%
- viability, T/C [12]: 106%
- viability, T/C [13]: 96.3%
- viability, T/C [14]: 78.6%
- viability, T/C [15]: 95.5%
- viability, T/C [28]: 73.8%
- viability, T/C [16]: 70.2%
- viability, T/C [17]: 71.1%
- viability, T/C [18]: 72.6%
- viability, T/C [19]: 63.2%
- viability, T/C [20]: 68%
- viability, T/C [29]: 60.2%
- viability, T/C [21]: 30.3%
- viability, T/C [22]: 33.1%
- viability, T/C [23]: 23.9%
- viability, T/C [24]: 25%
- viability, T/C [25]: 28%
- viability, T/C [30]: 21.9%

Compound: CCNC(=O)CC1N=C(c2ccc(Cl)cc2)c2cc(OC)ccc2-n2c(C)nnc21 (stereo not given) + C=CC(=O)N1CCN(c2nc(=O)n(-c3c(C)ccnc3C(C)C)c3nc(-c4c(O)cccc4F)c(F)cc23)C(C)C1
- pIC50 (second compound 0.1 µM): 6.88
- pIC50 (second compound 0.316 µM): 6.86
- pIC50 (second compound 1 µM): 6.73
- pIC50 (second compound 3.16 µM): 6.85
- pIC50 (second compound 10 µM): > 7.50
- viability, T/C [1]: 84.2%
- viability, T/C [2]: 55.5%
- viability, T/C [3]: 31.9%
- viability, T/C [4]: 11.2%
- viability, T/C [5]: 1.81%
- viability, T/C [26]: 0.76%
- viability, T/C [6]: 83%
- viability, T/C [7]: 54%
- viability, T/C [8]: 37%
- viability, T/C [9]: 11.2%
- viability, T/C [10]: 1.1%
- viability, T/C [27]: 0.76%
- viability, T/C [11]: 78.3%
- viability, T/C [12]: 60.4%
- viability, T/C [13]: 41.4%
- viability, T/C [14]: 6.68%
- viability, T/C [15]: 2.48%
- viability, T/C [28]: 0.75%
- viability, T/C [16]: 69.9%
- viability, T/C [17]: 52.9%
- viability, T/C [18]: 37.9%
- viability, T/C [19]: 9.47%
- viability, T/C [20]: 2.07%
- viability, T/C [29]: 0.56%
- viability, T/C [21]: 44.4%
- viability, T/C [22]: 28.8%
- viability, T/C [23]: 6.81%
- viability, T/C [24]: 2.7%
- viability, T/C [25]: 1.1%
- viability, T/C [30]: 0.62%

Compound: Cn1nccc1Nc1nccc(-c2cc3c(s2)C(C)(C)N(CCN2CCOCC2)C3=O)n1 + C=CC(=O)N1CCN(c2nc(=O)n(-c3c(C)ccnc3C(C)C)c3nc(-c4c(O)cccc4F)c(F)cc23)C(C)C1
- pIC50 (second compound 0.1 µM): 7.07
- pIC50 (second compound 0.316 µM): 7.19
- pIC50 (second compound 1 µM): 7.17
- pIC50 (second compound 3.16 µM): 7.43
- pIC50 (second compound 10 µM): > 7.50
- viability, T/C [1]: 75.7%
- viability, T/C [2]: 46.1%
- viability, T/C [3]: 23.6%
- viability, T/C [4]: 13.3%
- viability, T/C [5]: 10.8%
- viability, T/C [26]: 7.2%
- viability, T/C [6]: 72.4%
- viability, T/C [7]: 29.5%
- viability, T/C [8]: 30.2%
- viability, T/C [9]: 18.7%
- viability, T/C [10]: 12.2%
- viability, T/C [27]: 7.24%
- viability, T/C [11]: 64.9%
- viability, T/C [12]: 39.1%
- viability, T/C [13]: 33.6%
- viability, T/C [14]: 18.3%
- viability, T/C [15]: 13.3%
- viability, T/C [28]: 9.7%
- viability, T/C [16]: 53%
- viability, T/C [17]: 34.9%
- viability, T/C [18]: 25.7%
- viability, T/C [19]: 16.5%
- viability, T/C [20]: 9.89%
- viability, T/C [29]: 8.92%
- viability, T/C [21]: 32.6%
- viability, T/C [22]: 19.6%
- viability, T/C [23]: 16.1%
- viability, T/C [24]: 13.9%
- viability, T/C [25]: 9.06%
- viability, T/C [30]: 6.64%
